Source: US20180012623A1, “Ionic Liquid, Lubricant, and Magnetic Recording Medium” (Dexerials Corporation, priority 2016, published 2018)
Where two headings read alike, the source gives them in different places.

Tests used:
[1] = Solubility test of ionic liquids in Vertrel XF and n-hexane (visual observation)
Experimental: To a predetermined amount of Vertrel XF or n-hexane, the ionic liquid was added. Ultrasonic waves were applied to the resultant mixture for 5 minutes, followed by leaving the mixture to stand for 1 day. The solubility was visually observed.
After applying ultrasonic waves to the resultant for 5 minutes, the resultant was left to stand for 1 day. Thereafter, the solubility was visually observed and evaluated based on the following evaluation criteria. […] Similarly, after applying ultrasonic waves to the resultant for 5 minutes, the resultant was left to stand for 1 day. Thereafter, the solubility was visually observed and evaluated based on the following evaluation criteria.
Note that, the solubility was visually observed, and it was judged as soluble when it was transparent. Moreover, it was judged as not soluble (insoluble) when it was opaque or insoluble components were observed.
The results are presented in Table 2. • [Evaluation Criteria]
• 0.2% by mass or greater:
Soluble with addition of 0.2 parts by mass • Less than 0.2% by mass:
Insoluble with addition of 0.2 parts by mass
<<n-Hexane>> • 0.5% by mass or greater:
Soluble with addition of 0.5 parts by mass • Less than 0.5% by mass:
Insoluble with addition of 0.5 parts by mass

[2] = Measurement of thermal stability (TG/DTA weight reduction temperature); format: physicochemical; conditions: for Weight reduction temperature 5% / Weight reduction temperature 10% / Weight reduction temperature 20%: TG/DTA, 30° C. to 600° C., 10° C./min, air 200 mL/min; for Weight reduction temperatures higher than those of Z-TETRAOL by: compared with Z-TETRAOL (Comparative Example 7C); for Weight reduction temperatures higher than those of Z-DOL by: compared with perfluoropolyether Z-DOL (Comparative Example 6C)
[3] = in acetonitrile; cited from earlier work
[4] = Vertrel XF [CF3(CHF)2CF2CF3], 25° C., 0.2 parts by mass added to 100 parts by mass, ultrasonic 5 minutes, left 1 day, visual
[5] = n-hexane, 25° C., 0.5 parts by mass added to 100 parts by mass, ultrasonic 5 minutes, left 1 day, visual

In the case of `CCCCCCCCCCCCCCCCCC[n+]1ccn(CCCC)c1.O=S1(=O)[N-]S(=O)(=O)C(F)(F)C(F)(F)C1(F)F` [2A, hexafluorocyclopropane-1,3-bis(sulfonyl)imide-1-butyl-3-n-octadecylimidazolium, reference compound], the “Solubility, Fluorine-based solvent” value [1] is reported as “less than 0.2% by mass”, the “Solubility, n-Hexane” value [1] is reported as “less than 0.5% by mass” and the “Weight reduction temperature 5%” value [2] is reported as 347.2 °C. The “Weight reduction temperature 10%” value [2] was 367.0 °C and the “Weight reduction temperature 20%” value [2] was 387.8 °C.
With `CCCCCCCCCCCCCCCCCCn1ccnc1CCCCCCCCCCCCCCCCC.O=S(=O)(O)C(F)(F)C(F)(F)C(F)(F)C(F)(F)F` [4A, nonafluorobutanesulfonic acid-1-octadecyl-2-heptadecyimidazole, reference compound] the “Solubility, Fluorine-based solvent” value [1, 4] was “less than 0.2% by mass”, the “Solubility, n-Hexane” value [1, 5] was “less than 0.5% by mass” and the “Weight reduction temperature 5%” value [2] was 338.2 °C. For the same compound, the “Weight reduction temperature 10%” value [2] was 365.9 °C and the “Weight reduction temperature 20%” value [2] was 390.1 °C.
For `CCCCCCCCCCCCn1ccnc1CCCCCCCCCCC.O=S(=O)(NS(=O)(=O)C(F)(F)C(F)(F)C(F)(F)C(F)(F)F)C(F)(F)C(F)(F)C(F)(F)C(F)(F)F` [Ex. 2A, bis(nonafluorobutanesulfonyl)imide-1-dodecyl-2-undecylimidazolium], the “Solubility, Fluorine-based solvent” value [1, 4] was at least 0.2% by mass, the “Solubility, Fluorine-based solvent” value ([1]; Vertrel XF [CF3(CHF)2CF2CF3], 25° C., 0.2 parts by mass added to 100 parts by mass, ultrasonic 5 minutes, left 1 day, visual, listed as Example 2A) was at least 0.2 % by mass and the “Solubility, n-Hexane” value [1, 5] was at least 0.5% by mass. The “Solubility, n-Hexane” value ([1]; n-hexane, 25° C., 0.5 parts by mass added to 100 parts by mass, ultrasonic 5 minutes, left 1 day, visual, listed as Example 2A) was at least 0.5 % by mass, the “Weight reduction temperature 5%” value [2] was 337.7 °C and the “Weight reduction temperature 10%” value [2] was 361.6 °C. For the same compound, the “Weight reduction temperature 20%” value [2] was 383.8 °C, the “Weight reduction temperatures higher than those of Z-TETRAOL by” value [2] was at least 100 °C and the “Weight reduction temperatures higher than those of Z-DOL by” value [2] was at least 160 °C.
With `CCCCCCCCCCCCCCCCCCn1ccnc1CCCCCCCCCCC.O=S(=O)(NS(=O)(=O)C(F)(F)C(F)(F)C(F)(F)C(F)(F)F)C(F)(F)C(F)(F)C(F)(F)C(F)(F)F` [Ex. 4A, bis(nonafluorobutanesulfonyl)imide-1-octadecyl-2-undecylimidazolium] the “Weight reduction temperature 5%” value [2] was 329.1 °C, the “Weight reduction temperature 10%” value [2] was 362.4 °C and the “Weight reduction temperature 20%” value [2] was 388.4 °C. The “Weight reduction temperatures higher than those of Z-TETRAOL by” value [2] was at least 90 °C and the “Weight reduction temperatures higher than those of Z-DOL by” value [2] was at least 160 °C.
In the case of `O=S(=O)(NS(=O)(=O)C(F)(F)C(F)(F)C(F)(F)C(F)(F)F)C(F)(F)C(F)(F)C(F)(F)C(F)(F)F` [bis(nonafluorobutanesulfonyl)imide], the pKa [3] is listed as 0.0.
In the case of `O=S1(=O)NS(=O)(=O)C(F)(F)C(F)(F)C1(F)F` [hexafluorocyclopropane-1,3-bis(sulfonyl)imide], the pKa [3] is given as −0.8.
In the case of `F[B-](F)(F)F.[H+]` [tetrafluoroboric acid], the pKa [3] is listed as 1.8.
With “nonafluorobutanesulfonic acid-1-dodecyl-2-undecylimidazolium [Ex. 1A]” the “Weight reduction temperature 5%” value [2] was 349.4 °C, the “Weight reduction temperature 10%” value [2] was 374.1 °C and the “Weight reduction temperature 20%” value [2] was 398.9 °C. For the same compound, the “Weight reduction temperatures higher than those of Z-TETRAOL by” value [2] was at least 100 °C and the “Weight reduction temperatures higher than those of Z-DOL by” value [2] was at least 170 °C.
In the case of “nonafluorobutanesulfonic acid-1-octadecyl-2-undecylimidazolium [Ex. 3A]”, the “Weight reduction temperature 5%” value [2] is reported as 328.3 °C, the “Weight reduction temperature 10%” value [2] is reported as 368.1 °C and the “Weight reduction temperature 20%” value [2] is reported as 396.7 °C. For the same compound, the “Weight reduction temperatures higher than those of Z-TETRAOL by” value [2] was at least 80 °C and the “Weight reduction temperatures higher than those of Z-DOL by” value [2] was at least 170 °C.
For “nonafluorobutanesulfonic acid-1-octadecylimidazolium [1A, reference compound]”, the “Weight reduction temperature 5%” value [2] was 349.3 °C, the “Weight reduction temperature 10%” value [2] was 375.0 °C and the “Weight reduction temperature 20%” value [2] was 397.5 °C.
In the case of “nonafluorobutanesulfonic acid-2-heptadecylimidazole [3A, reference compound]”, the “Weight reduction temperature 5%” value [2] is reported as 365.4 °C, the “Weight reduction temperature 10%” value [2] is reported as 390.5 °C and the “Weight reduction temperature 20%” value [2] is reported as 414.3 °C.
For “pentadecafluorooctanoic acid octadecyl ammonium [5A, reference compound]”, the “Weight reduction temperature 5%” value [2] was 206.9 °C, the “Weight reduction temperature 10%” value [2] was 215.8 °C and the “Weight reduction temperature 20%” value [2] was 223.4 °C. The “Thermal stability (in words)” value ([2]; summary of Table 3) was “lacking in thermal stability”.
In the case of perfluorocyclopropane sulfoimide, the pKa [3] is given as −0.8.
